The values below come from patent US20220047716A1, “COMBINATION THERAPIES WITH ANTI-FOLATE RECEPTOR ANTIBODY CONJUGATES” (SUTRO BIOPHARMA, INC., priority 2018, published 2022).

For one series, the system named is Igrov1 tumors. The series is described as follows: Igrov1 ovarian tumor xenograft efficacy in SCID Beige mice. As to conditions: Igrov1, day 29; ADC Molecule 4 2.5 mg/kg single dose; carboplatin 60 mg/kg q7dx2. The class given is in vivo.
The nature of series [1]: Pharmacokinetics of free drugs (I) and (II) in Sprague-Dawley rats. The class given is in vivo. As to conditions: IV bolus 0.4 or 1 mg/kg, data not shown. The method, then:
To assess the pharmacokinetic profile of free drug (I), female Sprague-Dawley rats (mean body weight 250 g) were given either a 0.4 mg/kg or 1 mg/kg dose by IV bolus administration (N=three animal per dose level) via an indwelling jugular vein catheter. Blood samples were collected at […], 1, 2, 8, 24, 32, 48, and 72 hour post-dose. Levels of free drug (I) and (II) were measured by LC-MS/MS and non-compartmental pharmacokinetic analysis was conducted using Phoenix WinNonlin Version 6.4 (Pharsight Corporation). The PK of free drug (I) could not be estimated due to the fact that concentrations of (I) increased from 2 to 8 hours and were undetectable thereafter.

Series [2] is described as follows: Body weight change in rats given free drugs. It is filed as in vivo. As to conditions: IV bolus, free drug (I) two doses (0.4, 1 mg/kg), free drug (II) 0.4 mg/kg.
The test system of a further series is MC38-hFolRα tumors. In words: MC38-hFolRα tumor model, combination with Avelumab. The note with it: ADC Molecule 4 10 or 15 mg/kg once IV; Avelumab q3dx3 intraperitoneally.

“And” between values parts separate entries of the source, which are not always exact repeats. Equal entries are not always repeated.

Method for Igrov1 tumors: Igrov1 ovarian cancer cells were implanted subcutaneously into SCID Beige mice and treated with a single dose of 2.5 mg/kg FolRα ADC variants listed in Table 20. ADCs were administered when tumors reached ˜150 mm^3.
Method for MC38-hFolRα tumors: Growth curves are shown until >50% of animals in the single agent treatment groups were euthanized due to reaching tumor size limit based on IACUC protocol. […] Statistical analysis for comparison to vehicle control was performed using one-way ANOVA with Dunnett's multiple comparisons test. A probability of less than 5% (p<0.05) was considered as significant. […] All graphs are presented as mean or individual values±SEM.

Turning to `N.N.O=C([O-])C1(C(=O)[O-])CCC1.[Pt+2]` [carboplatin], in the series with Igrov1 tumors, the “Final mean tumor size” value was found to be 842 mm^3; the “Tumor growth inhibition (TGI)” value was 70% and 47%. Take `CN[C@H](C(=O)N[C@H](C(=O)N(C)[C@H](/C=C(\C)C(=O)O)C(C)C)C(C)(C)C)C(C)(C)c1cccc(N)c1` [free drug (I)]: the “Plasma level of free drug” value in series [1] is given as “undetectable at 24 hours post dose”. Further, the “Effect on body weight” value in series [2] was “did not have an effect on the body weight of the animals”. On to `COc1cc2cc(c1Cl)N(C)C(=O)C[C@H](OC(=O)[C@H](C)N(C)C(=O)CCC(C)(C)S)[C@]1(C)O[C@H]1[C@H](C)[C@@H]1C[C@@](O)(NC(=O)O1)[C@H](OC)/C=C/C=C(/C)C2` [free drug (II), reference compound], for which the “Effect on body weight” value in series [2] is recorded as “progressive body weight loss was observed”. With “Avelumab: PD-L1 inhibitor Avelumab (clinical grade)”, the “Initial effect on MC38-hFolRα tumor growth” value in the series with MC38-hFolRα tumors was “tumor stasis until approximately day 7”.
